Assay results: patent US4492693A, “Benzothienylglycyl cephalosporin derivatives” (priority 1983, dated 1985)
Values after ≈ are worked out from the molar mass of the structure shown. Read-outs that look alike come from different tables or passages of the source. Blank lines part the entries; values can stand above or below the compound they belong to.

How the values were obtained:
[1] = system: Bacteroides fragilis; assay: Expanded anaerobic Spectrum MIC (Table IV); format: cell-based
[2] = system: Haemophilus influenzae; assay: Expanded H. influenzae Spectrum MIC (Table IV); format: cell-based
[3] = system: β-lactamase, organism 265A; assay: Stability to β-lactamase (Table V); format: biochemical; conditions: lower numbers mean greater stability
[4] = system: β-lactamase, organism PS185; assay: Stability to β-lactamase (Table V); format: biochemical; conditions: lower numbers mean greater stability
[5] = system: β-lactamase, organism TEM; format: biochemical; conditions: lower numbers mean greater stability
[6] = system: β-lactamase, organism 1082E; assay: Stability to β-lactamase (Table V); format: biochemical; conditions: lower numbers mean greater stability
[7] = system: β-lactamase, organism 1313G; assay: Stability to β-lactamase (Table V); format: biochemical; conditions: lower numbers mean greater stability
[8] = pKa (66% aqueous DMF); format: physicochemical
[9] = read-out: MIC mean, mean over strains

Compound: N[C@@H](C(=O)N[C@@H]1C(=O)N2C(C(=O)O)=C(Cl)CS[C@H]12)c1ccccc1 [cefaclor]
- MIC ([1]; read-out: MIC Geometric mean, geometric mean over strains): 32 µg/mL (≈ 87 µM)
- MIC [1, 9]: 39 µg/mL (≈ 106 µM)
- MIC ([1]; strain 180-821): 64 µg/mL (≈ 174 µM)
- MIC ([1]; strain 10668): 64 µg/mL (≈ 174 µM)
- MIC ([1]; strain 10683): 16 µg/mL (≈ 43.5 µM)
- MIC ([1]; strain 10695): 32 µg/mL (≈ 87 µM)
- MIC ([1]; strain 10732): 16 µg/mL (≈ 43.5 µM)
- MIC ([1]; strain 10750): > 64 µg/mL
- MIC ([1]; strain 10774): > 64 µg/mL
- MIC ([1]; strain 10817): 64 µg/mL (≈ 174 µM)
- MIC ([1]; strain 10837): > 64 µg/mL
- MIC ([1]; strain 107266): 16 µg/mL (≈ 43.5 µM)
- MIC ([1]; strain 107268): 16 µg/mL (≈ 43.5 µM)
- MIC ([1]; strain 108133): 32 µg/mL (≈ 87 µM)
- MIC ([2]; read-out: MIC Geometric Mean, geometric mean over strains): 2 µg/mL (≈ 5.44 µM)
- MIC [2, 9]: 3 µg/mL (≈ 8.16 µM)
- MIC ([2]; strain 101): 2 µg/mL (≈ 5.44 µM)
- MIC ([2]; strain 102): 16 µg/mL (≈ 43.5 µM)
- MIC ([2]; strain 103): 2 µg/mL (≈ 5.44 µM)
- MIC ([2]; strain 104): 1 µg/mL (≈ 2.72 µM)
- MIC ([2]; strain 105): 1 µg/mL (≈ 2.72 µM)
- MIC ([2]; strain 106): 2 µg/mL (≈ 5.44 µM)
- MIC ([2]; strain 107): 2 µg/mL (≈ 5.44 µM)
- MIC ([2]; strain 108): 1 µg/mL (≈ 2.72 µM)
- MIC ([2]; strain 109): 2 µg/mL (≈ 5.44 µM)
- MIC ([2]; strain 110): 1 µg/mL (≈ 2.72 µM)
- MIC ([2]; strain 111): 1 µg/mL (≈ 2.72 µM)
- MIC ([2]; strain 112): 2 µg/mL (≈ 5.44 µM)
- MIC ([2]; strain 113): 2 µg/mL (≈ 5.44 µM)
- MIC ([2]; strain 114): 1 µg/mL (≈ 2.72 µM)
- Stability to β-lactamase [3]: 138
- Stability to β-lactamase [4]: 71
- Stability to β-lactamase [5]: 23
- Stability to β-lactamase [6]: 65
- Stability to β-lactamase [7]: 4605

- pKa [8]: 5.7
Compound: C=CCOC(=O)NC(C(=O)O)c1csc2ccccc12 (stereo not drawn) [N-Allyloxycarbonyl-(3-benzothienyl)glycine]
